Drawing on patent publication US10479854B2, “Conjugate for treating malaria” (priority 2014, dated 2019), this text covers IC50 for one molecule.

For the test, the system named is chloroquine-resistant Plasmodium falciparum strain (D10R). The test is described as follows: In vitro anti-malaria assay (Malstat, lactate dehydrogenase). In kind it is cell-based. As to conditions: read-out: IC50(chloroquine). As for the experimental part:
In separate experiments, tyrocidine/tryptocidines conjugated to polymers 11 and 12, respectively, were administered at varying concentrations to blood samples containing cells infected with a chloroquine-resistant Plasmodium falciparum strain (D10 resistant mutant denoted D10R, IC50(chloroquine)>100 nM). For comparison purposes, the unconjugated/unmodified natural tyrocidine/tryptocidine mixture was also administered to blood infected with the same chloroquin-resistant malaria strain. FIGS. 16 and 17 show the antimalaria activity and the haemolytic activity of the tyrocidine/tryptocidine-PVP conjugates in comparison with the natural cyclodecapetide mixture. […]
P. falciparum (D10 strain) was cultured and dose-response assays were performed as previously described.^9 Briefly, parasites were cultured under an atmosphere of 3% CO2, 4% O2 and 93% N2 in RPMI-1640 media, supplemented with 25 mM HEPES, 50 mM glucose, 0.65 mM hypoxanthine, 0.048 mg/mL gentamicin, 0.2% (w/v) NaHCO3, 0.5% (w/v) Albumax II and 2% fresh human O^+ erythrocytes obtained from anonymous donors from the Western Cape Blood Blank. […] A 10 μL aliquot from each well was diluted to 100 μL with phosphate buffered saline and analysed at 405 nm, on a plate reader, to determine the quantity of released haemoglobin and haemolytic activity of the conjugates. […]

pIC50: −log10 of the molar value.

Broadly, the pIC50 is −log10 of the IC50, conventionally taken in molar units.

With `CCN(CC)CCCC(C)Nc1ccnc2cc(Cl)ccc12` (stereo not shown) [chloroquine], the pIC50 is under 7.00.
